Values joined by “and” are separate entries in the source; they are usually repeats but may differ in a detail not shown here. Equal values may be shown once.
Key:
Test in all cases: Caliper, Mobility shift assay off-chip
[1] = biological target: CSNK1A1 (human) (UniProt P48729)
[2] = biological target: PRKX (human) (UniProt P51817)
[3] = biological target: MKNK2 (human) (UniProt Q9HBH9)
[4] = biological target: MELK (human) (UniProt Q14680)
[5] = biological target: PTK2 (human) (UniProt Q05397)
PTK2 (human), sequence (Q05397 whole entry, looked up): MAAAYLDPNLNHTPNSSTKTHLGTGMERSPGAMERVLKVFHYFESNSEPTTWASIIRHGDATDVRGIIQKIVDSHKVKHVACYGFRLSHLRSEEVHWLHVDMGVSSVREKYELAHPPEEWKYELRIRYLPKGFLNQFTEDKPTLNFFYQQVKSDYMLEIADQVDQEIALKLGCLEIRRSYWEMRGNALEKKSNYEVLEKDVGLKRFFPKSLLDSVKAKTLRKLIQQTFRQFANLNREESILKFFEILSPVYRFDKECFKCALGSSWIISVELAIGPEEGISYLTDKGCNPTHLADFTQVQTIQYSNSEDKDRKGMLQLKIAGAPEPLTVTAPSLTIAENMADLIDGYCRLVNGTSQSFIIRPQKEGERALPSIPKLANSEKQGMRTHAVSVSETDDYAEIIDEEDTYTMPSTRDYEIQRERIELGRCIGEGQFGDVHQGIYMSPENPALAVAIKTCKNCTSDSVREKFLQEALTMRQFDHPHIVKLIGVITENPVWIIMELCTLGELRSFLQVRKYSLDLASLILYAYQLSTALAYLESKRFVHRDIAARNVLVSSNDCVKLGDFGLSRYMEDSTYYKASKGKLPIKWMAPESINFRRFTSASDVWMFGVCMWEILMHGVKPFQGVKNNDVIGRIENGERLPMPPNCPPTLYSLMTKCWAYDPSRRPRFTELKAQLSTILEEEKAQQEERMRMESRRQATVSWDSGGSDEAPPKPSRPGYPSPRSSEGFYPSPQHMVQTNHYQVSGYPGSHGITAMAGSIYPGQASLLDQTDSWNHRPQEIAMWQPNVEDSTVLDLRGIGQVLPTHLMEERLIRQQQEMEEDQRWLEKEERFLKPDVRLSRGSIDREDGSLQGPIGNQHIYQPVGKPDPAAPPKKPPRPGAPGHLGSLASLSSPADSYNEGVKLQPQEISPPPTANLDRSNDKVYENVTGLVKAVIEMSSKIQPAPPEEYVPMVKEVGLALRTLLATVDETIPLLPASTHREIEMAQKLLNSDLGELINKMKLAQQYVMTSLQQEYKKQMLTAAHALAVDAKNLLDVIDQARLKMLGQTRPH

[6] = biological target: ERBB4 (human) (UniProt Q15303)
[7] = biological target: DDR2 (human) (UniProt Q16832)
[8] = biological target: PRKD3 (human) (UniProt O94806)
[9] = biological target: PDK4 (human) (UniProt Q16654)
[10] = biological target: PRKG2 (human) (UniProt Q13237)
[11] = biological target: MAP4K4 (human) (UniProt O95819)
[12] = biological target: CHEK1 (human) (UniProt O14757)
CHEK1 (human), sequence (O14757 whole entry, looked up): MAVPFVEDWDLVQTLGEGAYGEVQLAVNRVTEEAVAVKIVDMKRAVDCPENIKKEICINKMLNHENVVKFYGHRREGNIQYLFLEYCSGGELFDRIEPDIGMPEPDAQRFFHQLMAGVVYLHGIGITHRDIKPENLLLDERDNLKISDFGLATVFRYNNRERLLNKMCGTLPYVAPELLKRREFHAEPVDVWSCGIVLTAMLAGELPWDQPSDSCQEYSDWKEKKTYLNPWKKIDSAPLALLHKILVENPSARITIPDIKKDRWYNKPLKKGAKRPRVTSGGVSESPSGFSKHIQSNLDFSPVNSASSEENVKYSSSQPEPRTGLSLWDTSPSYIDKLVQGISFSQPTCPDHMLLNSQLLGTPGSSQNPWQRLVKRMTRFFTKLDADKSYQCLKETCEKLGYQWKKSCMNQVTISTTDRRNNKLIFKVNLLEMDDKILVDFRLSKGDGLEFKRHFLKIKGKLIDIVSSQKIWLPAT

[13] = biological target: DAPK1 (human) (UniProt P53355)
[14] = biological target: MAPK13 (human) (UniProt O15264)
[15] = biological target: STK10 (human) (UniProt O94804)
[16] = biological target: NEK4 (human) (UniProt P51957)
[17] = biological target: MST1R (human) (UniProt Q04912)
[18] = biological target: PAK7 (human) (UniProt Q9P286)
[19] = biological target: CDK5 (human) (UniProt Q00535)
CDK5 (human), sequence (Q00535 whole entry, looked up): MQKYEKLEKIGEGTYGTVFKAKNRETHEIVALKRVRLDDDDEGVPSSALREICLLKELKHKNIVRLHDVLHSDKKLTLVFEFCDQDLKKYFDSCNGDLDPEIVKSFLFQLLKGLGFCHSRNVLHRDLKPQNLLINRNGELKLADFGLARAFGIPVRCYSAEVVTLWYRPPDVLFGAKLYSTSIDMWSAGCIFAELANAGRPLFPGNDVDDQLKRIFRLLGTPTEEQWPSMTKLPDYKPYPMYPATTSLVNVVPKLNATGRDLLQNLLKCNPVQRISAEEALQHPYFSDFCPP

[20] = biological target: CAMK2B (human) (UniProt Q13554)
[21] = biological target: MARK3 (human) (UniProt P27448)
[22] = biological target: TAOK2 (human) (UniProt Q9UL54)
[23] = biological target: PRKCQ (human) (UniProt Q04759)
PRKCQ (human), sequence (Q04759 whole entry, looked up): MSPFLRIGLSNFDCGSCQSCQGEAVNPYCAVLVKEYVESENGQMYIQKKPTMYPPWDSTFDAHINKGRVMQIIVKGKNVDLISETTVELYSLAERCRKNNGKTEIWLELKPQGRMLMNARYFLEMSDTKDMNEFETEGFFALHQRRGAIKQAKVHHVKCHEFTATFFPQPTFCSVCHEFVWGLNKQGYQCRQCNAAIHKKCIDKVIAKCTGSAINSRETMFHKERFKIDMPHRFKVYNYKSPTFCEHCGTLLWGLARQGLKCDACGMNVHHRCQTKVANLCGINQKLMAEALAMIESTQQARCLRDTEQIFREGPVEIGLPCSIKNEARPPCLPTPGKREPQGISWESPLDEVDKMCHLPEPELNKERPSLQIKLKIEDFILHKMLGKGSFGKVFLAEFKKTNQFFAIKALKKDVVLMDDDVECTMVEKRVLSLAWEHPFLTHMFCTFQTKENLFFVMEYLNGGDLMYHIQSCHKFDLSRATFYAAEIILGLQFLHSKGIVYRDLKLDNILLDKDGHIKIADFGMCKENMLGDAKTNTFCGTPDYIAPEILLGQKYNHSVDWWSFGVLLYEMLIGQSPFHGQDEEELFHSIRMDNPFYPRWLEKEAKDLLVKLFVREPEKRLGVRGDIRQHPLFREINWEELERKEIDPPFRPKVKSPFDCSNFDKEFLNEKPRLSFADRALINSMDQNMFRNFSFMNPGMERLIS

[24] = biological target: BTK (human) (UniProt Q06187)
[25] = biological target: RPS6KA5 KD1 KD2 (human) (UniProt O75582)
RPS6KA5 KD1 KD2 (human), sequence (O75582 whole entry, looked up): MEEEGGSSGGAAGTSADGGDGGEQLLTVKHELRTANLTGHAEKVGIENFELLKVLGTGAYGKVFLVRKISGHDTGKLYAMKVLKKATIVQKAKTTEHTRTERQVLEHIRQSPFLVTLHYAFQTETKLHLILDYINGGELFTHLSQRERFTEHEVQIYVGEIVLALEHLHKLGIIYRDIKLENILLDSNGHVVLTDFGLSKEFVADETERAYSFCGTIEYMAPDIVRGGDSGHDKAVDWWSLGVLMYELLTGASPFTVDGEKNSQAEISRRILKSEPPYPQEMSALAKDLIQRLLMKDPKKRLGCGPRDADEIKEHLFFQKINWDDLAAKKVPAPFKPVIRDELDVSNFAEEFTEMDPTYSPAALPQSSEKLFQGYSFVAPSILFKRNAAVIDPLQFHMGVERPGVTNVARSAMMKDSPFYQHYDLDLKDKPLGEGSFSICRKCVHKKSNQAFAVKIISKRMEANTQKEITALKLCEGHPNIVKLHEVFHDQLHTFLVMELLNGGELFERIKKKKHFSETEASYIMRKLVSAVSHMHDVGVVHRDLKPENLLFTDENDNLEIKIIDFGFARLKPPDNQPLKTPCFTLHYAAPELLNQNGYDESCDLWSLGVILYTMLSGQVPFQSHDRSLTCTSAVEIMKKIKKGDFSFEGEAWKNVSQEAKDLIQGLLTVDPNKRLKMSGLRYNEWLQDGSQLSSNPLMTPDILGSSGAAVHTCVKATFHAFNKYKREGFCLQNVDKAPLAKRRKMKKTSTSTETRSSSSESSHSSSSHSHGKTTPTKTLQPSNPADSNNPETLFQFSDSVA

[26] = biological target: PHKG2 (human) (UniProt P15735)
[27] = biological target: RET (human) (UniProt P07949)
[28] = biological target: SIK2 (human) (UniProt Q9H0K1)
SIK2 (human), sequence (Q9H0K1 whole entry, looked up): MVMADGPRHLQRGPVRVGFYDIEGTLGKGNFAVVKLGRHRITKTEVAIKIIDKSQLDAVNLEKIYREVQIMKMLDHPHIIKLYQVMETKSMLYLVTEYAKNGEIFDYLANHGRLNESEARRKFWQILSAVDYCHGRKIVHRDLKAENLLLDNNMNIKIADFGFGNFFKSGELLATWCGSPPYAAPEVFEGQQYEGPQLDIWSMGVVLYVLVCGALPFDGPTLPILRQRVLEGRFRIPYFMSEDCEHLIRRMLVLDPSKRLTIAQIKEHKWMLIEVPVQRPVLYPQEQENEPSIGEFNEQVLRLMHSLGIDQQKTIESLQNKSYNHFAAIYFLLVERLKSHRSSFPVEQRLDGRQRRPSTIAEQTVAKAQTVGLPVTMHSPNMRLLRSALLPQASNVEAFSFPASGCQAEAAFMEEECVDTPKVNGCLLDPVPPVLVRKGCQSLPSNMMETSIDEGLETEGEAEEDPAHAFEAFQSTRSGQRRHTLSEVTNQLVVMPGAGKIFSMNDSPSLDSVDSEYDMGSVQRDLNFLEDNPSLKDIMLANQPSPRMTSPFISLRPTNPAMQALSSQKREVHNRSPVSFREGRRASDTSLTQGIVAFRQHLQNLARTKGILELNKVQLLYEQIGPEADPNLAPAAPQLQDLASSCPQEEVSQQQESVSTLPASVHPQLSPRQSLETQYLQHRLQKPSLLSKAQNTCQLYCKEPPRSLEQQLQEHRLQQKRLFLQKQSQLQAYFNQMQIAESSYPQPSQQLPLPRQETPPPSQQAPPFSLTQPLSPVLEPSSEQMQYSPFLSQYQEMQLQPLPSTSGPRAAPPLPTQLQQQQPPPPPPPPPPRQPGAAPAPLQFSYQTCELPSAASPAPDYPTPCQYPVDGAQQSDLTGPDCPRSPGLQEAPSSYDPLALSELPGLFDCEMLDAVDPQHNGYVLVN

[29] = biological target: CDK6 (human) (UniProt Q00534)
CDK6 (human), sequence (Q00534 whole entry, looked up): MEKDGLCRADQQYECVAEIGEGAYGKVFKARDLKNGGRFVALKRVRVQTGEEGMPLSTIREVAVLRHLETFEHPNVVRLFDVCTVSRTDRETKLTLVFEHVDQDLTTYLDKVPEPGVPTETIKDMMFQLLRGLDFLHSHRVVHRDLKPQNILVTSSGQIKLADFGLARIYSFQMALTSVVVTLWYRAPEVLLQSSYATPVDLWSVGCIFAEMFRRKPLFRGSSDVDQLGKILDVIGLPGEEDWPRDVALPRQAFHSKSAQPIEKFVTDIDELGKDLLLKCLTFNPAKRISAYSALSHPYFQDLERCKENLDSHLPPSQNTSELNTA

[30] = biological target: ABL2 (human) (UniProt P42684)
[31] = biological target: LYN (human) (UniProt P07948)
[32] = biological target: PDK2 (human) (UniProt Q15119)
[33] = biological target: MAPK10 (human) (UniProt P53779)
[34] = biological target: DYRK1A (human) (UniProt Q13627)

MKNK2 (human), sequence (Q9HBH9 whole entry, looked up): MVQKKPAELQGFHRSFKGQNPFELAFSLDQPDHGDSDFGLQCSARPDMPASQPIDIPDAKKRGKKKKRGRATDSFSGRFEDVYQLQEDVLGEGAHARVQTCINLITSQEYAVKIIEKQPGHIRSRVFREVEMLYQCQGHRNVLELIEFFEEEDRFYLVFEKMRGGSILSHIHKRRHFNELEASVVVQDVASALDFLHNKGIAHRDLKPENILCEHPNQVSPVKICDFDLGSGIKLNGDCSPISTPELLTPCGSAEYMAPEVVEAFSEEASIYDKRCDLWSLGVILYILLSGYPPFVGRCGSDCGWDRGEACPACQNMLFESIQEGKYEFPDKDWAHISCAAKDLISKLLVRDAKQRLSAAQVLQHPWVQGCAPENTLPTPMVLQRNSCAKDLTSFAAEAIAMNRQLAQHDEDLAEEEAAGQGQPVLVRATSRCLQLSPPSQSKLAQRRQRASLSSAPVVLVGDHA

Cc1ccc(Nc2nccc(N(C)c3ccc4c(C)n(C)nc4c3)n2)cc1S(N)(=O)=O
inhibition ([1]; compound 0.02 µM): -4.9%
inhibition ([1]; compound 0.2 µM): -7%
inhibition ([2]; compound 0.02 µM): -0.6%
inhibition ([2]; compound 0.2 µM): 0.8%
inhibition ([3]; compound 0.02 µM): 2.7%
inhibition ([3]; compound 0.2 µM): 1.5%
inhibition ([4]; compound 0.02 µM): 8.1%
inhibition ([4]; compound 0.2 µM): 12.4%
inhibition ([5]; compound 0.02 µM): -2%
inhibition ([5]; compound 0.2 µM): 8.3%
inhibition ([6]; compound 0.02 µM): 8.4%
inhibition ([6]; compound 0.2 µM): 2.6%
inhibition ([7]; compound 0.02 µM): 34.2%
inhibition ([7]; compound 0.2 µM): 85%
inhibition ([8]; compound 0.02 µM): -1.6%
inhibition ([8]; compound 0.2 µM): 1.3%
inhibition ([9]; compound 0.02 µM): -0.5%
inhibition ([9]; compound 0.2 µM): 0.8%
inhibition ([10]; compound 0.02 µM): -2.3%
inhibition ([10]; compound 0.2 µM): -2.6%
inhibition ([11]; compound 0.02 µM): 3.9%
inhibition ([11]; compound 0.2 µM): 24.6%
inhibition ([12]; compound 0.02 µM): 1.8%
inhibition ([12]; compound 0.2 µM): 0.3%
inhibition ([13]; compound 0.02 µM): 6.5%
inhibition ([13]; compound 0.2 µM): 6.7%
inhibition ([14]; compound 0.02 µM): -3.6%
inhibition ([14]; compound 0.2 µM): -3.8%
inhibition ([15]; compound 0.02 µM): 8.8%
inhibition ([15]; compound 0.2 µM): 39.2%
inhibition ([16]; compound 0.02 µM): -3.5%
inhibition ([16]; compound 0.2 µM): -0.8%
inhibition ([17]; compound 0.02 µM): 2.1%
inhibition ([17]; compound 0.2 µM): 4.9%
inhibition ([18]; compound 0.02 µM): 9%
inhibition ([18]; compound 0.2 µM): 1.3%
inhibition ([19]; compound 0.02 µM): -0.3%
inhibition ([19]; compound 0.2 µM): 0.9%
inhibition ([20]; compound 0.02 µM): -4.2%
inhibition ([20]; compound 0.2 µM): -5.5%
inhibition ([21]; compound 0.02 µM): 1.7%
inhibition ([21]; compound 0.2 µM): -3.6%
inhibition ([22]; compound 0.02 µM): 3.7%
inhibition ([22]; compound 0.2 µM): 22.3%
inhibition ([23]; compound 0.02 µM): 1.7%
inhibition ([23]; compound 0.2 µM): 0.5%
inhibition ([24]; compound 0.02 µM): 2.4%
inhibition ([24]; compound 0.2 µM): 3.1%
inhibition ([25]; compound 0.02 µM): -4.7%
inhibition ([26]; compound 0.02 µM): -3.5%
inhibition ([26]; compound 0.2 µM): -1.8%
inhibition ([27]; compound 0.02 µM): 32.3%
inhibition ([27]; compound 0.2 µM): 82.1%
inhibition ([28]; compound 0.02 µM): 1.3%
inhibition ([28]; compound 0.2 µM): 5.7%
inhibition ([29]; compound 0.02 µM): 6.2%
inhibition ([29]; compound 0.2 µM): 8.2%
inhibition ([30]; compound 0.02 µM): 2.6%
inhibition ([30]; compound 0.2 µM): 27.6%
inhibition ([31]; compound 0.02 µM): 16.6% and 20.8%
inhibition ([31]; compound 0.2 µM): 62.4% and 63.7%
inhibition ([32]; compound 0.02 µM): -2.3%
inhibition ([32]; compound 0.2 µM): -4.2%

CNC(=O)c1ccccc1Sc1ccc2c(/C=C/c3ccccn3)n[nH]c2c1
inhibition ([1]; compound 0.001 µM): -8.2%
inhibition ([1]; compound 0.02 µM): -7.8%
inhibition ([2]; compound 0.001 µM): 0.1%
inhibition ([2]; compound 0.02 µM): -1.7%
inhibition ([3]; compound 0.001 µM): 0.4%
inhibition ([3]; compound 0.02 µM): 1.4%
inhibition ([4]; compound 0.001 µM): 1.9%
inhibition ([4]; compound 0.02 µM): 0.9%
inhibition ([5]; compound 0.001 µM): -7.1%
inhibition ([5]; compound 0.02 µM): -5.9%
inhibition ([6]; compound 0.001 µM): 6.3%
inhibition ([6]; compound 0.02 µM): 3.7%
inhibition ([33]; compound 0.001 µM): -5%
inhibition ([33]; compound 0.02 µM): -4.4%
inhibition ([7]; compound 0.001 µM): -1.6%
inhibition ([7]; compound 0.02 µM): 2.2%
inhibition ([8]; compound 0.001 µM): -4.3%
inhibition ([8]; compound 0.02 µM): -1.6%
inhibition ([9]; compound 0.001 µM): 0.1%
inhibition ([9]; compound 0.02 µM): -0.5%
inhibition ([10]; compound 0.001 µM): -4.8%
inhibition ([10]; compound 0.02 µM): -6%
inhibition ([11]; compound 0.001 µM): -2.3%
inhibition ([11]; compound 0.02 µM): 1.2%
inhibition ([12]; compound 0.001 µM): -2%
inhibition ([12]; compound 0.02 µM): 0.9%
inhibition ([13]; compound 0.001 µM): -5%
inhibition ([13]; compound 0.02 µM): 4.8%
inhibition ([14]; compound 0.001 µM): -3.3%
inhibition ([14]; compound 0.02 µM): -3.7%
inhibition ([15]; compound 0.001 µM): 6.2%
inhibition ([15]; compound 0.02 µM): 21.3%
inhibition ([16]; compound 0.001 µM): -5.5%
inhibition ([16]; compound 0.02 µM): -4.4%
inhibition ([17]; compound 0.001 µM): 0.8%
inhibition ([17]; compound 0.02 µM): 1.8%
inhibition ([18]; compound 0.001 µM): -2.5%
inhibition ([18]; compound 0.02 µM): 7%
inhibition ([21]; compound 0.001 µM): -1%
inhibition ([22]; compound 0.001 µM): -4.1%
inhibition ([22]; compound 0.02 µM): -6.1%
inhibition ([23]; compound 0.001 µM): 9.9%
inhibition ([23]; compound 0.02 µM): -1.9%
inhibition ([25]; compound 0.001 µM): -6.2%
inhibition ([25]; compound 0.02 µM): -7.1%
inhibition ([26]; compound 0.001 µM): -6.2%
inhibition ([26]; compound 0.02 µM): -3.3%
inhibition ([28]; compound 0.001 µM): 0.7%
inhibition ([28]; compound 0.02 µM): -1.6%
inhibition ([29]; compound 0.001 µM): 3.5%
inhibition ([29]; compound 0.02 µM): 4.4%
inhibition ([30]; compound 0.001 µM): 5.8%
inhibition ([30]; compound 0.02 µM): 58.4%
inhibition ([31]; compound 0.001 µM): -2.2% and 4.1%
inhibition ([31]; compound 0.02 µM): 16% and 9.7%
inhibition ([34]; compound 0.001 µM): 8%
inhibition ([34]; compound 0.02 µM): -5.5%
inhibition ([32]; compound 0.001 µM): -2.9%
inhibition ([32]; compound 0.02 µM): -4.8%

— the kinase profiling compilation of Christmann-Franck et al. (2016)
